Data on 16 compounds can be found in US20260373497A1, “MOLECULAR MACHINES STIMULATE INTERCELLULAR CALCIUM WAVES AND CAUSE MUSCLE CONTRACTION” (William Marsh Rice University, priority 2022, published 2026).

The test system of data set [1] is HEK293 cells. Put plainly: ROS scavengers on MM 1-induced calcium waves. Format: cell-based. The note with it: melatonin 100 μM, thiourea 50 mM, L-ascorbic acid 2 mM; 1 h; MM 1, 4.5×10^2 W cm^−2. How it is done: Normalized fluorescence intensity traces of HEK293 cells treated with MM 1 and Fluo-4 and administered (a) melatonin (Mel; 100 μM), (b) thiourea (ThioU; 50 mM), and (c) L-ascorbic acid (Vit C; 2 mM). The shaded region indicates the standard error of n=6 stimulation attempts. Dark traces indicate positive controls collected prior to treatment. Stimulation was administered at 4.5×10^2 W cm^−2. Cells were incubated with chosen ROS scavengers for 1 h prior to stimulation.

In a further data set the test system is C2C12 myoblasts. Put plainly: Pathway inhibitors on MM-induced calcium release in C2C12 myoblasts. Format: cell-based, mouse. The note with it: role: inhibitor; for Effect on MM-induced calcium signaling: SQ22536 100 μM, cAMPS-Rp 200 μM. How it is done: FIGS. 38A-38F—Calcium release in C2C12 myoblasts occurs by means of the IP3 pathway. Average normalized fluorescence intensity traces of C2C12 myoblasts before and after treatment with a) 10 μM U-73122 (PLC inhibitor), b) 100 μM gallein (GPCRβγ inhibitor), c) 1 μM FR900359 (GPCRα inhibitor), d) 200 μM cAMPS-Rp (cAMP antagonist, inhibits PKA activation), e) 100 μM SQ22536 (adenylyl cyclase inhibitor), and f) 1 μM nintedanib (RTK inhibitor).
It was determined that MMs activate the IP3 pathway by inhibiting key proteins along the pathway. If inhibition of a specific protein decreases the magnitude of the observed calcium responses, then it can be assumed that the targeted protein played an important role in propagating the calcium signaling pathway that was initiated by MMs. […] When both gallein and FR900359 are used simultaneously, a similar decrease of ~50% also occurs (FIG. 33). […] This may occur either through direct MM activation or indirectly through MM activation of a different signaling pathway. It is known that RTKs can also activate PLC (Bill and Vines, 2020).
The effect of cAMP pathway inhibition on the elicited calcium signaling responses was measured by using 100 μM SQ22536 to inhibit adenylyl cyclase (FIG. 38D) and 200 μM cAMPS-Rp (FIG. 38E), a cAMP antagonist that inhibits protein kinase A (PKA) activation. […] At this moment it cannot be concluded whether this effect is because MMs also activate the GPCRs associated with the cAMP pathway, or if inhibition of adenylyl cyclase and PKA naturally affects normal calcium signaling pathways, regardless of MM stimulation.

Data set [2] has as its system HEK293 cells. Nature of the data set: Pharmacological blocking of MM 1-induced calcium responses. Format: cell-based. To be noted: role: inhibitor, MM 1 + light. How it is done:
FIGS. 14A-14J—Mechanistic study of MM-induced ICW. (a) Schematic of possible mechanisms by which calcium can enter the cytoplasm. Prepared with Biorender.com. (b) Confocal microscope images of HEK293 cells treated with MM 1, MitoTracker Green, ER Tracker Red, and CellMask Deep Red. Scale bars are both 20 μm and apply to the images in the same row. (c-h) Calcium waves elicited by MM 1-treated cells (c) in calcium-free PBS, (d) in RR (1 μM), (e) in Gd^3+ (50 μM), (f) after treatment of cells with Th (1 μM), (g) in Ry (100 μM), (h) in XeC (25 μM), (i) in U-73 (10 μM), (j) after pre-treatment of cells with Cyto D (2 μM). The solid line represents the calcium profiles averaged from six independent cells. The shaded region represents the standard error of the mean (n=6). Stimuli were presented after 30 s of imaging in each case, and the time of stimulus presentation is indicated by the vertical cyan line. […] All stimuli were delivered with a pulse width of 250 ms to a circular area of diameter 5 μm at a power ranging from 3.2×10^2 W cm^−2 to 5.1×10^2 W cm^−2. For all plots, the cyan line indicates the time of stimulus presentation. Controls and experimental groups were imaged and stimulated on the same day using the same conditions and with the same batch of cells. Error bars in the bar graphs represent the standard deviation of the mean of n=3 experiments (at least 6 stimulated cells per experiment). Statistical analyses were performed using a one-tailed Welch's t-test. * P-value<0.05, ** P-value<0.01, *** P-value<0.001, **** P-value<0.0001.
Imaging was conducted in imaging extracellular buffer (iECB; 119 mM NaCl, 5 mM KCl, 10 mM HEPES, 2 mM CaCl2, 1 mM MgCl2 (pH 7.2); 320 mOsm). Imaging in calcium-free medium was conducted in phosphate-buffered saline. Cells were prepared for imaging by seeding a 35 mm Ibidi imaging dish with ~50,000 cells in 1 mL of DMEM, and grown at 37 °C, 5% CO2 for 2 days. Prior to imaging, cells were incubated with dyes and/or molecules resuspended in complete growth medium at the appropriate concentration (MM 1 (8 μM), MM 2 (8 μM), MM 3 (24 μM), MM 4 (8 μM), Fluo-4 (2 μM)). MM and Fluo-4 were loaded into cells for 45 min. Cells treated with thapsigargin were exposed for 30 min after MM and Fluo-4 loading. Cells treated with organelle-targeting dyes were exposed for 5 min after MM loading. Ruthenium red and Gd^3+ were included in the imaging medium during stimulation and were associated with cells for 10 min prior to imaging. At the end of incubation, this medium was replaced with the iECB. Unless otherwise specified, all experiments were replicated in triplicate.
Pharmacological Experiments: In pharmacological blocking experiments, cells were loaded with MM and Fluo-4 as previously described. Typical imaging experiments in previously described extracellular buffer were then conducted as a positive control. Then, the imaging buffer was replaced, and the cells were treated as required for each experiment. After a brief recovery period, the cells were imaged again, and six different cells were stimulated. Experiments in calcium-free imaging buffer used phosphate buffered saline. Thapsigargin (Th: 1 μM) and Cytochalasin D (Cyto D; 2 μM) were incubated with cells in complete growth medium for 1 h (Th) or 2 h (Cyto D) before imaging. Ruthenium red (RR; 1 μM), gadolinium (Gd; 50 μM), ryanodine (Ry; 100 μM), xestospongin C (XeC; […]), and U-73122 (U-73; 10 μM) were administered directly into the imaging medium. Cells were incubated in the medium for ~5 min prior to imaging. Traces presented are representative results across at least six cells from single experiments, while bar graphs represent the average results across at least three distinct experiments.

For a further data set, the system named is C2C12 myotubes. Put plainly: C2C12 myotube contraction (image subtraction). Format: cell-based, mouse. How it is done:
FIG. 35—Flow chart for the image subtraction process. First, the background is subtracted from the traces to account for drift during the course of the experiment (top row). After this, the traces are zeroed at the point of stimulation, and the area is calculated from the point of stimulation until the end of the experiment to yield the contraction magnitude. (bottom row).
FIGS. 40A-40D—MMs induce contraction in C2C12 myotubes, a) Confocal microscopy images of Fluo-4 and b) image subtraction of brightfield images to highlight calcium release and contractile motion in three stimulated myotubes (indicated by the red arrows) immediately before stimulation (t=0) for 1.5 s with 400-nm light, as well as 10 s and 120 s after stimulation. Scale bar=30 μm. c) Magnitude of contraction of MM 1 compared to DMSO, MM 2, MM 3, and cells treated with 10 μM U-73122. d) Mechanism of skeletal muscle cell contraction.
This method yielded images where the pixel intensity corresponds to movement over the course of the experiment (FIG. 40C), allowing us to easily visualize and quantify contraction.

Data set [3] can be described thus: UV-Vis absorbance of motors in DMSO. Type of data set: physicochemical. From the text: The UV-Vis spectrum of each motor was also acquired in DMSO (FIG. 37D) to ensure that the difference in absorbance at 400 nm was not the cause of larger or smaller responses.
The conditions of data set [4]: cited from earlier work.

Consider `NC(N)=S` [thiourea], for which the “Effect of ROS scavenger on MM induced ICW” value (from here on “Effect of ROS scavenger”) in the data set on HEK293 cells [1] was “does not affect MM induced ICW”.
Take `COC(=O)c1ccc2c(c1)NC(=O)/C2=C(\Nc1ccc(N(C)C(=O)CN2CCN(C)CC2)cc1)c1ccccc1` [nintedanib]: the “Effect on MM-induced calcium responses” value in the data set with C2C12 myoblasts (nintedanib 1 μM (RTK inhibition)) is “no decrease in magnitude of the elicited calcium responses”.
Take `C=C1[C@@H](C)[C@H]2[C@H](Cc3ccccc3)NC(=O)[C@]23[C@H](OC(C)=O)/C=C/[C@@](C)(O)C(=O)[C@@H](C)C/C=C/[C@H]3[C@@H]1O` [cytochalasin D]: the “Effect on MM-induced calcium responses” value in the data set on HEK293 cells [2] (cytochalasin D 2 μM, P=0.01762) is “inhibited”.
As to ryanodine, in the data set with HEK293 cells [2] (ryanodine 100 μM), the “Effect on MM-induced calcium response amplitude” value is on record as “no effect on response amplitude”.
For the compound `N.N.N.N.N.N.N.N.N.N.N.N.N.N.[Cl-].[Cl-].[Cl-].[Cl-].[Cl-].[Cl-].[O-2].[O-2].[Ru+3].[Ru+3].[Ru+4]` [ruthenium red], the “Effect on MM-induced calcium responses” value in the data set on HEK293 cells [2] (ruthenium red 1 μM (10 μM in Table 2)) was “did not decrease the magnitude of MM-induced calcium responses”.
With `COc1ccc2[nH]cc(CCNC(C)=O)c2c1` [melatonin], the “Effect of ROS scavenger” value in the data set on HEK293 cells [1] is given as “does not affect MM induced ICW”.
Regarding `[Gd+3]` [Gd^3+, gadolinium], the “Effect on MM-induced calcium responses” value with HEK293 cells [2] (Gd^3+ 50 μM) was “did not affect the observed responses”.
Turning to `C/C=C(/C)C(=O)O[C@H]1C(C)=C2[C@H]([C@@H]1OC(=O)CCCCCCC)[C@@](C)(OC(C)=O)C[C@H](OC(=O)CCC)[C@@]1(O)[C@H]2OC(=O)[C@@]1(C)O` [thapsigargin], the “Effect on MM-induced calcium responses” value with HEK293 cells [2] (thapsigargin 1 μM, P=0.00257) is reported as “did not show any measurable calcium flux upon light stimulation”.
As to FR900359, the “Reduction in observed calcium response” value in the data set with C2C12 myoblasts (FR900359 1 μM) is reported as ~ 50%.
In the case of `Nc1ncnc2c1ncn2[C@@H]1O[C@@H]2CO[P@@](O)(=S)O[C@H]2[C@H]1O` [cAMPS-Rp], the “Effect on MM-induced calcium signaling” value in the data set with C2C12 myoblasts is “small reduction in calcium signaling”.
As to `C1CCC[C@H]2CCCN3CC[C@@H](CCCCCC[C@@H]4CCCN5CC[C@@H](CC1)O[C@@H]45)O[C@@H]23` [xestospongin C], the “Effect on MM-induced calcium responses” value in the data set on HEK293 cells [2] (XeC 25 μM (20 μM in Table 2), P=0.0167) is listed as “significantly diminished the strength of cellular responses to MM”.
With `CN(C)CCNc1ccc2c(c1)Sc1ccccc1C2=C1CCc2ccc3ccccc3c21` [MM 2 (fast, bidirectional)], the Myotube contraction entry in the data set with C2C12 myotubes (400-nm light 1.5 s, image subtraction) is given as “Strong cellular contraction did not occur”. The “Absorbance at 400 nm” value in data set [3] is recorded as “nearly identical absorbances at 400 nm”. Moreover, the Rotation rate in data set [4] is ~ 3 MHz.
Consider `O=C1OC2(c3ccccc31)c1ccc(O)c(O)c1Oc1c2ccc(O)c1O` [gallein], for which the inhibition at 100 µM with C2C12 myoblasts (Mus musculus, C2C12, gallein 100 μM, read-out: Reduction in observed calcium response) is roughly 50%.
`O=C1O[C@H]([C@@H](O)CO)C(O)=C1O` [L-ascorbic acid]: the “Effect of ROS scavenger” value with HEK293 cells [1] is listed as “does not affect MM induced ICW”.
On to `Nc1ncnc2c1ncn2C1CCCO1` (stereo not shown) [SQ22536], for which, in the data set on C2C12 myoblasts, the “Effect on MM-induced calcium signaling” value was “small reduction in calcium signaling”.
Consider `COc1ccc2c(c1)CC[C@@H]1[C@@H]2CC[C@]2(C)[C@@H](NCCCCCCN3C(=O)C=CC3=O)CC[C@@H]12` [U-73122, reference compound], for which the “Effect on MM-induced calcium responses” value in the data set with C2C12 myoblasts (U-73122 10 μM) is “completely abolished”. In the data set with C2C12 myotubes (role: inhibitor, U73 (10 μM) with MM 1 + light), the “Myotube contraction magnitude with PLC inhibitor” value was “contraction magnitude equal to that of the DMSO control”.
